Experimental data published in PubChem BioAssay AID790 (SRMLSC, 2007).
Activity calls are given as the source filed them. No rule for the calls is given here.

Assays:
[1] = system: S. cerevisiae vps1Δ mutant growth inhibition; test: growth inhibition of yeast vps1Δ mutant, dose response, S. cerevisiae, background strain comparison (AID 790)
[2] = as above; conditions: S. cerevisiae vps1Δ mutant growth inhibition; measured here: background strain growth inhibition

| SMILES | IC50 [1] | IC50 [2] |
| --- | --- | --- |
| Cc1ccc(CN2CCN(/N=C/c3cc(Br)ccc3O)CC2)cc1 | > 10 µM (inactive) | > 10 µM |
| N#CC1=C(N)C(C#N)(C#N)C(c2cccnc2)C2CC(c3ccccc3)CC=C12 (stereo not given) | 3.03 µM (inactive) | 2.97 µM |
| Cc1ccc(SC(C)C(=O)Nc2ncn[nH]2)cc1 (stereo not given) | > 10 µM (inactive) | > 10 µM |
| COc1cccc(NC(=O)C2CCCN2C(=O)OCc2ccccc2)c1 (stereo not given) | > 10 µM (inactive) | > 10 µM |
| Cc1c(Cl)c([N+](=O)[O-])nn1Cc1ccc(C(=O)N/N=C\c2cccc(Br)c2)o1 | < 0.049 µM | > 10 µM |
| CCCCCOc1ccc(Cl)cc1CN1CCOCC1 | > 10 µM (inactive) | > 10 µM |
| O=C(C1CCN(S(=O)(=O)c2cccs2)CC1)N1CCCCCC1 | > 10 µM (inactive) | > 10 µM |
| O=C(NC1CCCC1)C(c1ccsc1)N(C(=O)Cc1cccs1)c1ccc(F)cc1 (stereo not given) | > 10 µM (inactive) | > 10 µM |
| Cc1ccc(SC(=O)COc2ccc(C)c(C)c2)cc1 | > 10 µM (inactive) | > 10 µM |
| O=C(N/N=C/c1ccc(OC(=O)c2ccccc2)cc1)c1ccc(CN2CCOCC2)cc1 | > 10 µM (inactive) | > 10 µM |
| O=C(O)c1cc(-c2ccc(/C=N/Nc3ccc(Cl)cc3)o2)ccc1Cl | 4.51 µM | 16.4 µM |
| CC1CCCCC1NC(=O)CSc1nnnn1-c1ccccc1 (stereo not given) | > 10 µM (inactive) | > 10 µM |
| Cc1ccc(N2CCN(S(=O)(=O)N3CCCCCC3)CC2)cc1Cl | > 10 µM (inactive) | > 10 µM |
| CC(C)Oc1ccc(/C(O)=C2/C(=O)C(=O)N(CCN(C)C)C2c2ccco2)cc1 (stereo not given) | > 10 µM (inactive) | > 10 µM |
| O=C(OCn1nnc2ccccc2c1=O)c1cn(-c2ccccc2)nc1-c1cccnc1 | > 10 µM (inactive) | > 10 µM |
| COc1ccc(C(=O)c2c(C(F)(F)F)oc3c2C(=O)c2ccccc2C3=O)cc1 | 1.99 µM | 2.32 µM |
| N#Cc1cn(-c2ccccc2)nc1-c1cc2ccccc2oc1=O | > 10 µM (inactive) | > 10 µM |
| O=C1c2ccccc2C(=O)c2c1oc(C(F)(F)F)c2C(=O)c1ccccc1 | 1.3 µM | 2.2 µM |
| CCc1ccc(C(=O)/C=C/c2ccc([N+](=O)[O-])o2)cc1 | 2.13 µM | 20.7 µM |
| N#Cc1nc(COc2ccc(-c3ccccc3)cc2)oc1NCCCN1CCOCC1 | 21.4 µM (inactive) | 15.4 µM |
| COc1ccccc1N1CCN(C2CCN(C(=O)c3cc(OC)c(OC)c(OC)c3)CC2)CC1 | > 10 µM (inactive) | > 10 µM |
| COc1ccc(/C=C2\SC(=S)N(NC(=O)c3csc4c3CCCC4)C2=O)cc1 | > 10 µM (inactive) | > 10 µM |
| C/C(=N\N=C(/N)SC1CC(=O)N(c2ccc(Cl)c(Cl)c2)C1=O)c1cccs1 (stereo not given) | 4.46 µM | 5.98 µM |
| COC(=O)C1=CN(CCCN2CCCC2=O)C=C(C(=O)OC)C1c1ccccc1C(F)(F)F | > 10 µM (inactive) | > 10 µM |
| CCOC(=O)C1CCN(Cc2cnc(Oc3ccc(Cl)cc3C)s2)CC1 | > 10 µM (inactive) | > 10 µM |
| Cc1ccc(C)c(C(=O)NCc2ccncc2)c1 | > 10 µM (inactive) | > 10 µM |
| COc1ccc(Cl)cc1NC(=O)C(C)N1CCN(C/C=C/c2ccccc2)CC1 (stereo not given) | > 10 µM (inactive) | 15 µM |

| SMILES | IC50 [1] | IC50 [2] |
| --- | --- | --- |
| Cc1ccc(OCC(O)CN2CCN(Cc3ccc4c(c3)OCO4)CC2)c(C)c1 (stereo not given) | > 10 µM (inactive) | > 10 µM |
| Cn1c(=O)c2nc(NCc3ccccc3)cnc2n(C)c1=O | > 10 µM (inactive) | > 10 µM |
| CC(NC(=O)CSc1nc2c(cc1C#N)CN(C)CC2)c1ccccc1 (stereo not given) | > 10 µM (inactive) | > 10 µM |
| Cc1cc(O)c(/C=N/Nc2ccc(Cl)cc2)c(=O)o1 | 5.43 µM (inactive) | 4.69 µM |
| CCOC(=O)c1c(NC(=O)CN2CCCCC2)sc2c1CCC(C=O)=C2Cl | > 10 µM (inactive) | > 10 µM |
| CCOC(=O)C1=C(CSc2nc(-c3ccccc3)ccc2C#N)OC(N)=C(C#N)C1c1cccnc1 (stereo not given) | > 10 µM (inactive) | > 10 µM |
| c1ccc(COc2ccc(CN3CCN(c4ccccn4)CC3)cc2)cc1 | > 10 µM (inactive) | > 10 µM |
| CC1CCCCN1CCNC(=O)Cn1nc(-c2ccccc2)ccc1=O (stereo not given) | > 10 µM (inactive) | > 10 µM |
| O=C(NCC(c1cccnc1)N1CCN(c2ccccc2)CC1)c1ccc2c(c1)OCO2 (stereo not given) | > 10 µM (inactive) | > 10 µM |
| CC(=O)c1ccc(N2CCN(C(=O)c3ccc(Br)cc3)CC2)c(F)c1 | 1.52 µM | 6.58 µM |
| Cc1sc(NC(=O)c2ccco2)c(C(c2cccnc2)N2CCC(C)CC2)c1C (stereo not given) | > 10 µM (inactive) | 5.77 µM |
| O=C(COc1ccc(Br)cc1F)NC1CCN(Cc2ccccc2)CC1 | > 10 µM (inactive) | > 10 µM |
| O=C(Nc1nnc(-c2ccc3c(c2)CCCC3)o1)c1ccc(Cl)cc1Cl | 1.18 µM | 3.46 µM |
| CN1CCN(CCCNC(=O)Cn2nc(-c3ccccc3)ccc2=O)CC1 | > 10 µM (inactive) | > 10 µM |
| CCCn1nc([N+](=O)[O-])c(C(C#N)c2nc3ccccc3s2)c(Cl)c1=O (stereo not given) | 1.5 µM | 2.16 µM |
| Nc1c(C(=O)OCC2CCCO2)c2nc3ccccc3nc2n1-c1ccc2c(c1)OCCO2 (stereo not given) | > 10 µM (inactive) | > 10 µM |
| O=S(=O)(c1cnccc1N1CCN(/N=C/c2ccc(Br)cc2)CC1)N1CCCCC1 | > 10 µM (inactive) | > 10 µM |
| C=CCc1ccc(OCCCCN2CC(C)OC(C)C2)c(OC)c1 (stereo not given) | > 10 µM (inactive) | > 10 µM |
| O=C(NCc1ccc2c(c1)OCO2)C1CCCN1C(=O)Nc1ccccc1 (stereo not given) | > 10 µM (inactive) | > 10 µM |
| CC1CCCN(CCOCCOc2ccc(Cl)cc2Br)C1 (stereo not given) | > 10 µM (inactive) | > 10 µM |
| Cc1ccc(C(=O)NCc2occc2C(=O)O)o1 | > 10 µM (inactive) | > 10 µM |
| Cc1cccc(OCC(=O)O/N=C(\N)Cc2ccc(Cl)cc2)c1 | > 10 µM (inactive) | 10.4 µM |
| Cc1cc(C(C)(C)C)ccc1OCCN1CCCC1 | > 10 µM (inactive) | > 10 µM |
| O=C(CC(=O)c1cc(Cl)ccc1O)c1ccccc1 | 2.11 µM | 12.7 µM |
| O=C(O)c1ccc(N2CCCCC2)cc1 | > 10 µM (inactive) | > 10 µM |
| CCOC(=O)C(C)Oc1ccc2c(C)cc(=O)oc2c1C(C)=O (stereo not given) | > 10 µM (inactive) | > 10 µM |
| NC(=O)c1ccsc1NC(=O)c1nc(-c2ccccc2)n(-c2ccccc2)n1 | > 10 µM (inactive) | > 10 µM |

| SMILES | IC50 [1] | IC50 [2] |
| --- | --- | --- |
| CC(C)OC(=O)CSc1nnc(-c2ccc(Cl)cc2)n1N | > 10 µM (inactive) | > 10 µM |
| O=C(CCl)c1ccc(Cc2ncc(C(F)(F)F)cc2Cl)s1 | 9.7 µM (inactive) | 8.68 µM |
| Cc1ccc(C(=O)OCn2ncc(Cl)c(Cl)c2=O)cc1 | 4.06 µM | 4.62 µM |
| Cc1nnc(-c2cccc(Br)c2)c2cn(-c3ccccc3)nc12 | > 10 µM (inactive) | > 10 µM |
| CCC(OC(=O)C(NC(=O)c1ccccc1)c1ccccc1)C(=O)Nc1cc(C)on1 (stereo not given) | > 10 µM (inactive) | > 10 µM |
| O=C(OCn1ncc(Cl)c(Cl)c1=O)c1cccc(C(F)(F)F)c1 | 3.35 µM | 3.51 µM |
| O=C(NCc1ccco1)C(c1cccs1)N(C(=O)Cc1cccs1)c1ccccc1 (stereo not given) | > 10 µM (inactive) | > 10 µM |
| Cc1ccc(S(=O)(=O)N2CC3CC(C2)c2cccc(=O)n2C3)cc1 (stereo not given) | > 10 µM (inactive) | > 10 µM |
| O=C1c2cccc3c([N+](=O)[O-])ccc(c23)C(=O)N1c1ccc(Cl)cn1 | 8.74 µM (inactive) | 6.08 µM |
| CCC(=O)N(CCO)Cc1cc2ccc(C)c(C)c2[nH]c1=O | > 10 µM (inactive) | > 10 µM |
| O=C(NCC(c1cccnc1)N1CCN(c2ccccc2)CC1)C1CCCCC1 (stereo not given) | > 10 µM (inactive) | > 10 µM |
| COc1ccc(NC(=O)N(C2CCCCC2)C(C)c2cccnc2)c(OC)c1 (stereo not given) | 16.5 µM | 16.7 µM |
| O=C(Nc1ccccc1)C1=C(O)CC(c2ccco2)CC1=Nc1ccccc1 (stereo not given) | > 10 µM (inactive) | > 10 µM |
| COc1ccc(NC(=O)c2ccc(CN3CCN(c4ccccc4)CC3)cc2)cc1 | > 10 µM (inactive) | > 10 µM |
| CCc1ccc(N(C(=O)c2csnn2)C(C(=O)NC(C)(C)C)c2ccncc2)cc1 (stereo not given) | > 10 µM (inactive) | > 10 µM |
| Cc1cccnc1Nc1nc(-c2ccccn2)cs1 | 4.17 µM | > 10 µM |
| CCOCCCNC(=O)c1cc2sc(Cl)cc2n1CC | > 10 µM (inactive) | > 10 µM |
| O=C(COc1ccc(Cl)cc1Cl)N1CCN(C/C=C/c2ccccc2)CC1 | 13.2 µM (inactive) | 7.14 µM |
| CCOC(=O)NC(Nc1ccc(S(N)(=O)=O)cc1)(C(=O)OCC)C(F)(F)F (stereo not given) | > 10 µM (inactive) | > 10 µM |
| O=S(=O)(NCC(c1cccnc1)N1CCN(c2ccccc2)CC1)c1cccs1 (stereo not given) | 20.5 µM | > 10 µM |
| Cc1ccn2cc(-c3nonc3C)cc2c1 | > 10 µM (inactive) | > 10 µM |
| O=C(Nc1nnc(C2CC2)o1)c1ccc(S(=O)(=O)N2CCCc3ccccc32)cc1 | 11.9 µM (inactive) | 3.17 µM |
| Fc1ccc(Cn2nnc(-c3ccc(CN4CCOCC4)cc3)n2)cc1 | > 10 µM (inactive) | > 10 µM |
| COc1ccc(C2CC(=O)C3=C(C2)NC(C)=C(C(=O)Nc2ccccc2C)C3c2coc3ccc(C)cc3c2=O)cc1OC (stereo not given) | > 10 µM (inactive) | > 10 µM |
| O=C(NCC(=O)N(c1cccnc1)C(C(=O)NCc1ccco1)c1ccccc1)c1ccco1 (stereo not given) | > 10 µM (inactive) | > 10 µM |
| N=c1c2c(-c3ccccc3)c(-c3ccccc3)n(Cc3ccco3)c2ncn1Cc1ccco1 | > 10 µM (inactive) | 21.5 µM |
